≈ marks a conversion by molar mass, not a printed value. Like-named read-outs stand apart in the source and are kept apart here.
Columns and labels:
[1] = test system: CEM-SS cells; test: CEM-SS MTT assay, cytotoxicity (Table I); type: cell-based, human; details: Homo sapiens
[2] = test system: HIV-1; details: for Maximum Protection (%): CEM-SS MTT assay; for protecting cells against HIV infection: text summary of Table I
[3] = test system: HIV-1; test: microbe, parasite or virus in culture; details: Human immunodeficiency virus 1, CEM-SS
[4] = test system: G910-6 HIV viral strain; test: In vitro MTT assay, AZT-resistant isolate (Example 37, FIGS. 1); details: G910-6 strain, FIGS. 1(a)-1(e)
[5] = test system: H112-2 HIV viral strain; test: In vitro MTT assay, isolate not pre-treated with AZT (Example 37, FIGS. 2); details: H112-2 strain; FIGS. 2(a)-2(e)
[6] = test system: 2.2.15 cells; test: Toxicity in 2.2.15 cells, neutral red dye uptake; type: cell-based, human
Procedure: Cells of 2.2.15 were grown to confluence in 96-well flat-bottomed tissue culture plates and treated with compounds (in 0.2 mL culture medium/well) as described above. Four concentrations of each compound were assayed, each in triplicate cultures, in 3- to 10-fold steps. Untreated control cultures were maintained on each 96-well plate. On each 96-well plate, wells containing no cells were used to correct for light scattering.

[7] = test system: HCMV; test: HCMV semi-automated CPE-inhibition assay in human foreskin fibroblast cells; type: cell-based, human cytomegalovirus; details: Table II; for EC50: Human betaherpesvirus 5, Fibroblast
[8] = test system: human foreskin fibroblast cells; test: Toxicity run with the HCMV assay, human foreskin fibroblast cells; type: cell-based; details: Table II; for IC50: Homo sapiens, Fibroblast
Procedure: (§1) [table] […] The media from the wells is then aspirated and 2 mL of each drug concentration is then added to each well. The cells are then incubated in a CO2 incubator at 37° C. for 72 h. At the end of this time, the media-drug solution is removed and the cells washed. […] The cell-media mixture is then pipetted up and down vigorously to break up the cell suspension, and 0.2 mL of the mixture is added to 9.8 mL of Isoton III and counted using a Coulter Counter. Each sample is counted three times with three replicate wells per sample. The procedure for plating cells and adding drug is the same as for the MTT Assay. After drug addition, the plates are incubated for seven days in a CO2 incubator at 37° C. […] This is incubated in the CO2 incubator for one hour. The dye is aspirated and the cells are washed using a Nunc Plate Washer. […] The plates are rotated for 15 minutes and the optical densities are read at 550 nm on a plate reader.

[9] = test system: EBV; test: EBV assay: superinfection of Raji or Daudi cells with P3HR-1, immunofluorescence for EA and VCA; type: cell-based, Epstein-Barr virus; details: Table II
Text: There are two prototypes of infectious EBV. One is exemplified by the virus derived from supernatant fluids of the P3HR-1cell line. This cell line produces nontransforming virus that causes the production of early antigen (EA) after primary infection or superinfection of B cell lines. The other prototype is exemplified by the B-95-8 virus. This virus immortalized cord blood lymphocytes and induced tumors in marmosets.
The virus used in our assays is P3HR-1.
Ramos is an exceptional B cell line derived from Burkitt's lymphoma tumor but containing no detectable EBV genome copies and is EBNA negative. Ramos/AW was obtained by in vitro infection of Ramos with the P3HR-1 virus and contains one resident EBV genome copy/cell. Raji is a Burkitt's lymphoma cell line containing 60 EBV genomes/cell, and will be the primary cell used for screening antiviral activity against EBV EA expression. Daudi is a low level producer that contains 152 EBV genome copies/cell. It spontaneously expresses EBV EA in 0.25%-0.5% of the cells. It will be used in follow-up studies to confirm activity. These cell lines respond to superinfection by EBV by expressing EA(D), EA(R), and VCA. All cell lines are maintained in RPMI-1640 medium supplemented by 10% FCS, L-glutamine and 100 μg/mL gentamicin. The cultures are fed twice weekly and the cell concentration adjusted to 3×10^5/mL. The cells are kept at 37° C. in a humidified atmosphere with 5% CO2.
Cells are infected with the P3HR-1 strain of EBV and the drugs to be tested are added after adsorption (45 minutes at 37° C.) and washing of the cell cultures. The cultures are incubated for two days in complete medium to allow viral gene expression. Following the 48 hr incubation period, the number of cells of each sample are counted and smears made. Monoclonal antibodies to the different EA components and VCA are then added to the cells incubated and washed. This is followed by a fluorescein conjugated rabbit anti-mouse Ig antibody; and the number of fluorescence positive cells in the smears are counted. The total number of cells in the cultures positive for EA or VCA are then calculated and compared.

[10] = test system: Raji or Daudi cells; test: Toxicity run with the EBV assay; type: cell-based, human; details: Table II
Text: IC50 (50% inhibitory concentration) is the concentration required to inhibit cell proliferation by 50%

[11] = test system: VZV; test: VZV plaque reduction assay in human foreskin fibroblast cells; type: cell-based, varicella zoster virus; details: Table II
Procedure: Two days prior to use, HFF cells are plated into six-well plates and incubated at 37° C. with 5% CO2 and 90% humidity. On the date of assay, the drug is made up at twice the desired concentration in 2x MEM and then serially diluted 1:5 in 2x MEM using six concentrations of drug. The initial starting concentration is usually 200 gg/mL down to 0.06 μg/mL. The virus to be used is diluted in MEM containing 10% FBS to a desired concentration which will give 20-30 plaques per well. The media is then aspirated from the wells and 0.2 mL of virus is added to each well in duplicate with 0.2 mL of media being added to drug toxicity wells. The plates are then incubated for one hour with shaking every fifteen minutes. After the incubation period, an equal amount of 1% agarose was added to an equal volume of each drug dilution. This will give final drug concentrations beginning with 100 μg/mL and ending with 0.03 μg/mL and a final agarose overlay concentration of 0.5%. The drug agarose mixture is applied to each well in 2 mL volume and the plates then incubated for three days, after which the cells were stained with a 1.5% solution of neutral red. At the end of 4-6hr incubation period, the stain is aspirated, and plaques counted using a stereomicroscope at lOx magnification.
The procedure is essentially the same as for the HSV plaque assay described above with two exceptions:
1. After addition of the drug, the plates are incubated for ten days.
2. On days three and six, an additional 1 mL overlay with equal amounts of 2x MEM and 1% agarose are added.

[12] = test system: human foreskin fibroblast cells; test: Toxicity run with the VZV assay, human foreskin fibroblast cells; type: cell-based; details: Table II
Procedure: as §1

[13] = test system: HBV; test: HBV replication in cultures of 2.2.15 cells, extracellular HBV virion DNA (primary assay); details: for activity in primary assay (HBV virion): text summary of Table IV
Procedure: Both intracellular and extracellular HBV DNA are analyzed in order to (i) allow for verification of compound efficacy and (ii) provide possible data on the target site in the HBV replication pathway for the compound from examination of the pattern of viral replicative forms. The culture medium is changed daily during the treatment period to (i) prevent the buildup of potentially toxic metabolites derived from test compounds and (ii) provide an analysis of HBV virion production during discrete 24-hour intervals which enables a quantitative comparison of any effect on virion production.
The analysis of HBV DNA is performed using blot hybridization techniques (Southern and slot blot) and [^32P]-labeled HBV-specific probes. HBV DNA levels are measured by comparison to known amounts of HBV DNA standards applied to every nitrocellulose membrane (gel or slot blot). An AMBIS beta scanner, which measures the radioactive decay of the hybridized probes directly from the nitrocellulose membranes, is used for the quantitative analysis. Standard curves, generated by multiple analyses, are used to correlate CPM measurements made by the beta scanner with relative levels of target HBV DNA. The levels of HBV virion DNA released into the culture medium are analyzed by a slot blot hybridization procedure.

[14] = test system: HBV RI; test: HBV replication in 2.2.15 cells, intracellular DNA replication intermediates (secondary assay); details: for EC50: read-out: HBV RI EC50; for EC90: read-out: HBV RI EC90
[15] = test system: uninfected cells (MT-2, CEM-SS); test: MTT cytotoxicity on uninfected cells (Example 37); type: cell-based, human
[16] = test system: HIV-1; details: cited from earlier work
[17] = test system: human T-lymphoblastic cells (CEM-SS); details: cited from earlier work
[18] = test system: AZT-resistant G-9106 strain of HIV; details: cited from earlier work
[19] = test system: pyridinone-resistant A17 virus; details: cited from earlier work
[20] = Homo sapiens, Table II, read-out: HBV IC50
[21] = Hepatitis B virus, read-out: HBV EC50

CCCc1cc(=O)oc2c(C(=O)[C@@H](C)[C@H](C)O)c(O)c3c(c12)OC(C)(C)C=C3 (relative stereo) [(±)-8b, 6,6-Dimethyl-9-hydroxy-10-12(S*)-methyl-3(S*)-hydroxybutyro]4-propyl-2H,6H-benzo[1,2-b:3,4-b′]dipyran-2-one]
IC50 [1]: 21.5 µM | melting point: 115 °C | Maximum Protection (%) [2]: 81% | protecting cells against HIV infection [2]: highly efficacious | EC50 [3]: 2.28 µM

CCCc1cc(=O)oc2c3c(c4c(c12)OC(C)(C)C=C4)O[C@H](C)[C@@H](C)[C@@H]3O (racemic) [(±)-calanolide A, (±)-Calanolide A]
antiviral effect (reducing viral CPE) [4]: effective in reducing viral CPE | antiviral effect (reducing viral CPE) [5]: nearly as effective as (+)-calanolide A

CCCc1cc(=O)oc2c3c(c4c(c12)OC(C)(C)C=C4)OCC(C)C3=O (racemic) [(±)-15f]
IC50 ([6]; Table II, read-out: HBV IC50): 270 µM | IC50 ([6]; Table IV, HBV RI columns, read-out: HBV RI IC50): 303 µM | IC50 ([6]; Table IV, HBV Virion columns, read-out: HBV Virion IC50): 303 µM | HCMV EC50 [7]: >100 µg/mL | HCMV IC50 [8]: >100 µg/mL | EBV EC50 [9]: >50 µg/mL | EBV IC50 [10]: >50 µg/mL | VZV EC50 [11]: >20 µg/mL | VZV IC50 [12]: 60.0 µg/mL | EC50 ([13]; read-out: HBV EC50, Table II): 0.67 µM | EC50 ([13]; read-out: HBV Virion EC50, Table IV): 0.81 µM | EC90 ([13]; read-out: HBV Virion EC90, Table IV): 5 µM | activity in primary assay (HBV virion) [13]: active | EC50 ([14]; Table IV): 5.7 µM | EC90 ([14]; Table IV): 15 µM | activity in secondary assay (HBV RI) ([14]; text summary of Table IV): active

Cc1cn([C@H]2C[C@H](N=[N+]=[N-])[C@@H](CO)O2)c(=O)[nH]c1=O [AZT, reference compound]
antiviral effect (reducing viral CPE) [4]: little to no effect | antiviral effect (reducing viral CPE) [5]: sensitive to AZT

CCCc1cc(=O)oc2c3c(c4c(c12)OC(C)(C)C=C4)OC(C)C(C)(C)C3=O (racemic) [(±)-15a, (±)-10,11-Dihydro-6,6,10,11,11-pentamethyl-4-propyl-2H,6H, 12H-benzo[1,2-b:3,4-b′:5,6-b″]tripyran-2,12-dione]
IC50 [1]: 19.3 µM | IC50 [6, 20]: 1990 µM | IC50 ([6]; Homo sapiens, Table IV, HBV RI columns, read-out: HBV RI IC50): 1790 µM | IC50 ([6]; Homo sapiens, Table IV, HBV Virion columns, read-out: HBV Virion IC50): 1790 µM | EC50 [7]: > 100 µg/mL | IC50 [8]: > 100 µg/mL | EC50 [13, 21]: 2 µM | EC90 ([13]; Hepatitis B virus, read-out: HBV EC90): 16 µM | EC50 ([13]; Hepatitis B virus, read-out: HBV Virion EC50): 2.8 µM | EC90 ([13]; Hepatitis B virus, read-out: HBV Virion EC90): 20 µM | activity in primary assay (HBV virion) [13]: active | EC50 ([14]; Hepatitis B virus): > 30 µM | EC90 ([14]; Hepatitis B virus): > 30 µM

CCCc1cc(=O)oc2c(C(=O)[C@@H](C)[C@@H](C)O)c(O)c3c(c12)OC(C)(C)C=C3 (relative stereo) [(±)-8a, 6,6-Dimethyl-9-hydroxy-10-[2(S*)-methyl-3(R*)-hydroxybutyro-]4-propyl-2H,6H-benzo[1,2-b:3,4b′]dipyran-2-one]
IC50 [1]: 23.8 µM | melting point: 66 to 67 °C | Maximum Protection (%) [2]: 84% | protecting cells against HIV infection [2]: highly efficacious | EC50 [3]: 6.16 µM

CCCc1cc(=O)oc2c3c(c4c(c12)OC(C)(C)C=C4)OC(C)=C(C)C3O (stereo not drawn) [Compound 6, 12-hydroxy-6,6,10,11-tetramethyl-4-propyl-2H,6H,12H-benzo[1,2-b:3,4-b′:5,6-b″]tripyran-2-one]
melting point: 176 to 177 °C

CCCc1cc(=O)oc2c3c(c4c(c12)OC(C)(C)C=C4)O[C@@H](C)[C@H](C)[C@H]3O [(−)-1, (-)-Calanolide A]
toxicity ([15]; FIGS. 2(a)-2(e)): relatively non-toxic | toxicity ([15]; at concentrations of 1 μg/mL, FIGS. 1(a)-1(e)): relatively non-toxic | IC50 ([6]; Table II, read-out: HBV IC50): 173 µM | HCMV EC50 [7]: >20 µg/mL | HCMV IC50 [8]: 80.3 µg/mL | EBV EC50 [9]: >100 µg/mL | EBV IC50 [10]: >100 µg/mL | antiviral effect (reducing viral CPE) [4]: very little antiviral effect | antiviral effect (reducing viral CPE) [5]: very little antiviral effect | EC50 ([13]; read-out: HBV EC50, Table II): > 30 µM

CCCc1cc(=O)oc2c3c(c4c(c12)OC(C)(C)C=C4)O[C@H](C)[C@@H](C)[C@@H]3O [(+)-1, (+)-Calanolide A]
IC50 [6, 20]: 175 µM | EC50 [7]: > 20 µg/mL | IC50 [8]: 86.2 µg/mL (≈ 233 µM) | EC50 ([9]; human gammaherpesvirus 4): > 50 µg/mL | IC50 ([10]; Homo sapiens): > 50 µg/mL | EC50 ([16]; HIV-1 replication in CEM-SS cells): 0.1 µM | protection against the cytopathic effects of HIV-1 ([16]; down to a concentration of 0.1 μM): 100% | IC50 [17]: 20 µM | activity against AZT-resistant G-9106 strain of HIV [18]: active | activity against pyridinone-resistant A17 virus [19]: active | antiviral effect (reducing viral CPE) [4]: effective in reducing viral CPE | EC50 [13, 21]: > 2.6 µM

Source: US20020013478A1, “Calanolide analogues and methods of their use” (Sarawak Medichem Pharmaceuticals,Inc., priority 1994, published 2002)
